Laboratory results published in the RepoRT retention time repository (doi:10.1021/acs.analchem.1c00972).

Legend:
[1] = RP, Waters ACQUITY UPLC BEH C18, 100 × 1 mm, 1.7 µm, 50 °C, 0.3 mL/min, estimated dead time 0.17 min; A: water + 10 mM ammonium bicarbonate; B: 10% water + 90% methanol + 10 mM ammonium bicarbonate; gradient (min/%B) 0/0 15/100 21/100 22/0 30/0; conditions: stereoisomer not certain
[2] = RP, Waters ACQUITY UPLC BEH C18, 100 × 1 mm, 1.7 µm, 50 °C, 0.3 mL/min, estimated dead time 0.17 min; A: water + 0.1% formic acid + 20 mM ammonium formate; B: methanol + 0.1% formic acid + 20 mM ammonium formate; gradient (min/%B) 0/0 15/100 21/100 22/0 30/0; conditions: stereoisomer not certain

Row | SMILES | LC retention time [1] | LC retention time [2]
1 | CNCC(c1ccc(O)cc1)C1(O)CCCCC1 (racemic) [rac N,O-Didesmethyl Venlafaxine] | 15.4 min | 
2 | O=c1[nH]sc2ccccc12 [1,2-Benzisothiazolinone] | 6.97 min | 
3 | FC(F)(F)c1cccc(N2CCNCC2)c1 [1-(3-Trifluoromethylphenyl)-piperazine] | 10.6 min | 
4 | CNC(=O)Nc1ccc(C(C)C)cc1 [1-(4-Isopropylphenyl)-3-methyl-Harnstoff] | 13.1 min | 
5 | CCCCCCS(=O)(=O)O [1-Hexanesulfonic acid] | 9.17 min | 
6 | COc1cc(OC)n2nc(NS(=O)(=O)c3c(C(F)(F)F)ccnc3OC)nc2n1 [Pyroxsulam] |  | 11.7 min
7 | O=c1c(O)c(-c2ccc(O)c(O)c2)oc2cc(O)cc(O)c12 [Quercetin] |  | 11.4 min
8 | O=C(O)c1ccc2ccccc2n1 [Quinaldic acid] |  | 7.3 min
9 | CCOP(=S)(OCC)Oc1cnc2ccccc2n1 [Quinalophos] |  | 15.3 min
10 | CC1OC(OCC2OC(Oc3c(-c4ccc(O)c(O)c4)oc4cc(O)cc(O)c4c3=O)C(O)C(O)C2O)C(O)C(O)C1O (centres undefined) [Rutin] |  | 9.75 min
11 | CCC(C(=O)O)C1CCC(C)C(C(C)C(O)C(C)C(=O)C(CC)C2OC3(C=CC(O)C4(CCC(C)(C5CCC(O)(CC)C(C)O5)O4)O3)C(C)CC2C)O1 (centres undefined) [Salinomycin] |  | 18.4 min
12 | CC1CCCCC1NC(=O)Nc1ccccc1 (centres undefined) [Siduron] |  | 13.9 min
13 | CCC(C=CC(C)C1CCC2C3CC=C4CC(O)CCC4(C)C3CCC12C)C(C)C (centres undefined) [Stigmasterol] |  | 21.3 min
14 | O=C(O)CCCCCCC(=O)O [Suberic_acid] |  | 9.6 min
15 | Nc1ccc(S(=O)(=O)Nc2cnc3ccccc3n2)cc1 [Sulfachinoxalin] |  | 14 min
16 | COc1ccc(NS(=O)(=O)c2ccc(N)cc2)nn1 [Sulfamethoxypyridazin] |  | 8.03 min
17 | O=S1(=O)CCCC1 [Sulfolane] |  | 2.73 min
18 | CC(=O)N1N=C(c2ccc(N)cc2)c2cc3c(cc2CC1C)OCO3 (centres undefined) [Talampanel] |  | 11.5 min
19 | CC(=O)OC1C(=O)C2(C)C(O)CC3OCC3(OC(C)=O)C2C(OC(=O)c2ccccc2)C2(O)CC(OC(=O)C(O)C(NC(=O)c3ccccc3)c3ccccc3)C(C)=C1C2(C)C (centres undefined) [Taxol] |  | 15 min
20 | C=CNc1nc(NC(C)(C)C)nc(SC)n1 [Terbutryn-desaturated] |  | 14.3 min
21 | CCNc1nc(=S)nc(NC(C)(C)C)[nH]1 [Terbutryn-desmethyl] |  | 11.9 min
22 | C[N+](C)(C)C [Tetramethylammonium cation] |  | 2 min

Row | SMILES | LC retention time [1] | LC retention time [2]
23 | NC(=O)N=C1SCCN1Cc1ccc(Cl)nc1 [Thiacloprid amide] |  | 8.82 min
24 | CNC(=O)N(C)c1nnc(C(F)(F)F)s1 [Thiazafluron] |  | 11.8 min
25 | CNC(=O)ON=C(CSC)C(C)(C)C [Thiofanox] |  | 11.7 min
26 | CCOC(=O)C1(c2ccccc2)CCC=CC1N(C)C (centres undefined) [Tilidine] |  | 9.57 min
27 | CC(C)(C)C(=O)C(Oc1ccc(Cl)cc1)n1cncn1 (centres undefined) [Triadimefon] |  | 14.5 min
28 | [O-][n+]1nc(-n2ccnc2)nc2ccc(Cl)cc21 [Triazoxide] |  | 11.8 min
29 | O=S(=O)(O)C(F)(F)F [Trifluoromethanesulfonic acid] |  | 2 min
30 | COCCOCCOCCOC [Triglyme] |  | 8.28 min
31 | COP(=O)(OC)OC [Trimethyl phosphate] |  | 6.17 min
32 | CCOC(=O)C1CC(=O)C(=C(O)C2CC2)C(=O)C1 (centres undefined) [Trinexapac-ethyl] |  | 13.2 min
33 | O=P(OCC(Cl)CCl)(OCC(Cl)CCl)OCC(Cl)CCl (centres undefined) [Tris(2,3-dichloropropyl) phosphate] |  | 15.6 min
34 | CCCCC(CC)COP(=O)(OCC(CC)CCCC)OCC(CC)CCCC (centres undefined) [Tris(2-Ethylhexyl) phosphate] |  | 19.9 min
35 | Cc1ccccc1OP(=O)(Oc1ccccc1C)Oc1ccccc1C [Tris(2-methylphenyl) phosphate (tri-o-cresyl phosphate)] |  | 17 min
36 | O=C(OC1CC2CCC(C1)[N+]21CCCC1)C(O)(c1ccccc1)c1ccccc1 (centres undefined) [Trospium] |  | 14.2 min
37 | CC(C)(c1ccccc1)c1cc(-n2nc3ccccc3n2)c(O)c(C(C)(C)c2ccccc2)c1 [UV-234] |  | 16.6 min
38 | CC(C)(C)c1cc(-n2nc3ccccc3n2)c(O)c(C(C)(C)C)c1 [UV-320] |  | 19.8 min
39 | Cc1cc(-n2nc3ccc(Cl)cc3n2)c(O)c(C(C)(C)C)c1 [UV-326] |  | 17.6 min
40 | CC(C)(C)c1cc(-n2nc3ccc(Cl)cc3n2)c(O)c(C(C)(C)C)c1 [UV-327] |  | 10.2 min
41 | CC1CCC2(C(=O)O)CCC3(C)C(=CCC4C5(C)CCC(O)C(C)(C)C5CCC43C)C2C1C (centres undefined) [Ursolic acid] |  | 18.5 min
42 | O=C1CCCC=CCCCCCCCCCC1 [Velvione] |  | 18.1 min
43 | O=c1c2ccccc2oc2ccccc12 [Xanthon] |  | 13.6 min
44 | O=C(O)c1cc(=O)c2cccc(O)c2[nH]1 [Xanthurenic acid] |  | 6.8 min

Row | SMILES | LC retention time [1] | LC retention time [2]
45 | Cc1cc(C(C)(C)C)cc(C)c1CC1=NCCN1 [Xylometazoline] |  | 12.4 min
46 | Cc1cn(C2CC(N=[N+]=[N-])C(CO)O2)c(=O)[nH]c1=O (centres undefined) [Zidovudine] |  | 8.04 min
47 | NS(=O)(=O)Cc1noc2ccccc12 [Zonisamide] |  | 8.02 min
48 | CCCCCC(O)CC(=O)CCc1ccc(O)c(OC)c1 (centres undefined) [[6]-Gingerol] |  | 14 min
49 | CC(=O)Nc1ccc(OC2OC(C(=O)O)C(O)C(O)C2O)cc1 (centres undefined) [acetaminophen_glucuronide] |  | 3.8 min
50 | COc1ccc2c3c1OC1C(OC4OC(C(=O)O)C(O)C(O)C4O)C=CC4C(C2)N(C)CCC341 (centres undefined) [codeine-6-glucuronide] |  | 11.4 min
51 | NCCc1ccc(OC2OC(C(=O)O)C(O)C(O)C2O)c(O)c1 (centres undefined) [dopamine_glucuronide] |  | 9.2 min
52 | CNC(C)C(O)c1ccccc1 (centres undefined) [ephedrine] |  | 7.4 min
53 | NC(=O)Cc1c[nH]c2ccccc12 [indoleacetamide] |  | 8 min
54 | CCC(C(N)=O)N1CCCC1=O (centres undefined) [levetiracetam] |  | 6.9 min
55 | Cc1cnc(NC(=O)C2=C(O)c3ccccc3S(=O)(=O)N2C)s1 [meloxicam] |  | 13.3 min
56 | NC(Cc1ccccc1)C(=O)O (centres undefined) [phenylalanine] |  | 4.7 min
57 | O=C1NC(=O)c2ccccc21 [phthalimide] |  | 7.8 min
58 | C=CC1CN2CCC1CC2C(O)c1ccnc2ccc(OC)cc12 (centres undefined) [quinidine] |  | 9.5 min
59 | CC12CCC(=O)C=C1CCC1C2CCC2(C)C(OC3OC(C(=O)O)C(O)C(O)C3O)CCC12 (centres undefined) [testosterone_glucuronide] |  | 13.6 min
60 | O=C(O)/C=C/c1cccc(O)c1 [trans-3-Hydroxycinnamic acid] |  | 7.5 min
61 | O=C(O)/C=C/c1ccccc1 [trans-Cinnamic acid] |  | 9.9 min
62 | NCCc1c[nH]c2ccccc12 [tryptamine] |  | 7 min
63 | NC(Cc1c[nH]c2ccccc12)C(=O)O (centres undefined) [tryptophan] |  | 6.3 min
64 | NCCc1ccc(O)cc1 [tyramine] |  | 2.5 min
